Experimental data taken from patent publication US10668047B2, “Aziridine containing DNA alkylating agents” (priority 2015, dated 2020).
pIC50: −log10 of the molar value. Where two headings read alike, the source gives them in different places.

System: H460 non-cell lung cancer human tumor cell line
Test: In vitro human tumor cell line cytotoxicity (proliferation) assay, AlamarBlue
Assay type: cell-based
Description: IC50 values are reported in micromolar and result from exposure of compound at various concentrations for 2 hrs followed by a wash step and addition of fresh media followed by growth and cell viability staining and comparison to a media only treated control.
Specifically, exponentially growing cells are seeded at a density of 4×10^3 cells per well in a 96 well plate and incubated at 37° C. in 5% CO2, 95% air and 100% relative humidity for 24 hours prior to addition of test compounds. Compounds are solubilized in 100% DMSO at 200 times the desired final test concentration. At the time of drug addition, compounds are further diluted to 4 times the desired final concentration with complete medium. Aliquots of 50 μl of compound at specified concentrations are added to microtiter wells already containing 150 μl of medium, resulting in the final drug concentration reported. After drug addition, the plates are incubated for an additional 2 hours at 37° C., 5% CO2, 95% air, and 100% relative humidity, then the drug is washed off and fresh medium is added and the plates are incubated for addition 70 hrs at 37° C., 5% CO2, 95% air and 100% relative humidity. At the end of this incubation, the viable cells are quantified using the AlamarBlue assay. The drug concentration resulting in growth inhibition of 50% (IC50) is calculated using Prism software (Irvine, Calif.), and the results are listed in the table.

[1] = Homo sapiens, NCI-H460, H460 cells, under air, 2 hrs exposure, wash, then 70 hrs growth, read-out: IC50 (air)
[2] = Homo sapiens, NCI-H460, H460 cells, under nitrogen, 2 hrs exposure, wash, then 70 hrs growth, read-out: IC50 (N2)
[3] = H460 cells, under air, 2 hrs exposure, wash, then 70 hrs growth, read-out: IC50 (air)
[4] = H460 cells, under nitrogen, 2 hrs exposure, wash, then 70 hrs growth, read-out: IC50 (N2)
[5] = Homo sapiens, NCI-H460, read-out: IC50 (N2), H460 cells, under nitrogen, 2 hrs exposure, wash, then 70 hrs growth
[6] = Homo sapiens, NCI-H460, read-out: IC50 (air), H460 cells, under air, 2 hrs exposure, wash, then 70 hrs growth

SMILES | pIC50 [1] | pIC50 [2] | further results
CC(OP(=O)(N1CC1)N1CC1)c1ccc([N+](=O)[O-])c(-c2ccc(F)cc2)c1 (centres unmarked) [compound 2788] | 4.66 | 5.89 | 
Cc1ccc(COP(=O)(N2CC2)N2CC2)c([N+](=O)[O-])c1 [compound 2590] | 4.82 | 5.54 | 
C=CCCn1c([N+](=O)[O-])cnc1C(OP(=O)(N1CC1)N1CC1)C(C)C (centres unmarked) [compound 2574] | 4.54 | 7.00 | 
CC(OP(=O)(N1CC1)N1CC1)c1ccc([N+](=O)[O-])c(N2CCC3(CC2)OCCO3)c1 (centres unmarked) [compound 2709] | 4.59 | 5.62 | 
CC(OP(=O)(N1CC1)N1CC1)c1ccc([N+](=O)[O-])c(N2CCC(c3ccccc3)CC2)c1 (centres unmarked) [compound 2750] | 4.64 | 5.62 | 
CC(OP(=O)(N1CC1)N1CC1)c1ccc([N+](=O)[O-])c(C(F)F)c1 (centres unmarked) [compound 2821] | 5.30 | 7.30 | 
CC(C)Oc1cc([N+](=O)[O-])ccc1COP(=O)(N1CC1)N1CC1 [compound 2599] | 5.82 | 7.10 | 
CC1=NCCN1c1cc(C(C)OP(=O)(N2CC2)N2CC2)ccc1[N+](=O)[O-] (centres unmarked) [compound 2722] | 5.30 | 6.05 | 
Cc1nccn1-c1cc(C(C)OP(=O)(N2CC2)N2CC2)ccc1[N+](=O)[O-] (centres unmarked) [compound 2738] | 4.70 | 6.70 | 
CC(OP(=O)(N1CC1)N1CC1)c1cc(F)c([N+](=O)[O-])cc1F (centres unmarked) [compound 2721] | 5.05 | 7.70 | 
CCCC(OP(=O)(N1CC1)N1CC1)c1ncc([N+](=O)[O-])n1C (centres unmarked) [compound 2529] | 4.48 | 6.70 | 
CC(OP(=O)(N1CC1)N1CC1)c1ccc([N+](=O)[O-])c(-n2ccnc2)c1 (centres unmarked) [compound 2803] |  |  | pIC50 [3]: 3.82; pIC50 [4]: 6.52
O=[N+]([O-])c1ccc(COP(=O)(N2CC2)N2CC2)c(Cl)c1 [compound 2576] | 5.74 | 7.00 | 
CC(OP(=O)(N1CC1)N1CC1)c1ccc([N+](=O)[O-])c(C[N+](=O)[O-])c1 (centres unmarked) [compound 2811] |  |  | pIC50 [5]: 7.00; pIC50 [6]: 5.08
CC(OP(=O)(N1CC1)N1CC1)c1ccc([N+](=O)[O-])c(-n2nnc3ccccc32)c1 (centres unmarked) [compound 2777] | 5.47 | 8.00 | 
CC(OP(=O)(N1CC1)N1CC1)c1c([N+](=O)[O-])ncn1C (centres unmarked) [compound 2560] | 4.40 | 5.43 | 
CC(C)C(OP(=O)(N1CC1)N1CC1)c1ncc([N+](=O)[O-])n1C (centres unmarked) [compound 2567] |  |  | pIC50 [3]: 3.57; pIC50 [4]: 6.52
CC(OP(=O)(N1CC1)N1CC1)c1ccc([N+](=O)[O-])c(N2CCCC[C@H]2C)c1 (some centres unmarked) [compound 2740] | 4.62 | 5.85 | 
COc1cc(C(C)OP(=O)(N2CC2)N2CC2)ccc1[N+](=O)[O-] (centres unmarked) [compound 2620] | 5.13 | 5.60 | 
CC(C)C(OP(=O)(N1CC1)N1CC1)c1ncc([N+](=O)[O-])n1CCOC(C)(C)C (centres unmarked) [compound 2643] | 4.43 | 6.22 | 

SMILES | pIC50 [1] | pIC50 [2] | further results
CC(OP(=O)(N1CC1)N1CC1)c1ncc([N+](=O)[O-])n1C (centres unmarked) [compound 2552] |  |  | pIC50 [3]: 4.64; pIC50 [4]: 7.00
CC(OP(=O)(N1CC1)N1CC1)c1ccc([N+](=O)[O-])c(N(C)O)c1 (centres unmarked) [compound 2707] | 6.70 | 7.00 | 
CC(OP(=O)(N1CC1)N1CC1)c1ccc([N+](=O)[O-])c(-n2ccc3ccccc32)c1 (centres unmarked) [compound 2734] | 5.60 | 5.80 | 
CC(OP(=O)(N1CC1)N1CC1)c1ccc([N+](=O)[O-])c(N(C)C)c1 (centres unmarked) [compound 2680] | 3.96 | 5.59 | 
CC(OP(=O)(N1CC1)N1CC1)c1ccc([N+](=O)[O-])c(-c2cn(COC(=O)C(C)(C)C)nn2)c1 (centres unmarked) [compound 2793] | 5.40 | 6.40 | 
CC(OP(=O)(N1CC1)N1CC1)c1ncc([N+](=O)[O-])n1C (centres unmarked) [compound 2501] | 4.68 | 7.30 | 
CC(C)(C)[Si](C)(C)OCCC(OP(=O)(N1CC1)N1CC1)c1ccc([N+](=O)[O-])cc1 (centres unmarked) [compound 2712] | 6.52 | 6.70 | 
O=[N+]([O-])c1cnc(COP(=O)(N2CC2)N2CC2)n1C1CCCC1 [compound 2635] | 4.89 | 6.66 | 
CC(OP(=O)(N1CC1)N1CC1)c1ccc([N+](=O)[O-])c(F)c1 (centres unmarked) [compound 2678] | 4.49 | 6.40 | 
CC(OP(=O)(N1CC1)N1CC1)c1ccc([N+](=O)[O-])c(S(C)(=O)=O)c1 (centres unmarked) [compound 2700] | 3.43 | 3.46 | 
CC(OP(=O)(N1CC1)N1CC1)c1cc(-n2cncc2[N+](=O)[O-])c([N+](=O)[O-])cc1F (centres unmarked) [compound 2743] |  |  | pIC50 [5]: 6.70; pIC50 [6]: 5.43
CC(OP(=O)(N1CC1)N1CC1)c1ncc([N+](=O)[O-])n1C (centres unmarked) [compound 2551] |  |  | pIC50 [3]: 4.70; pIC50 [4]: 7.00
CC(OP(=O)(N1CC1)N1CC1)c1ccc([N+](=O)[O-])c(N=[N+]=[N-])c1 (centres unmarked) [compound 2691] | 5.64 | 5.64 | 
CC(C)(C)C(OP(=O)(N1CC1)N1CC1)c1ccc([N+](=O)[O-])o1 (centres unmarked) [compound 2127] | 4.74 | 7.70 | 
Cn1c([N+](=O)[O-])cnc1C(OP(=O)(N1CC1)N1CC1)C(F)(F)F (centres unmarked) [compound 2145] | 3.77 | 6.40 | 
CCN(CC)c1cc(C(C)OP(=O)(N2CC2)N2CC2)ccc1[N+](=O)[O-] (centres unmarked) [compound 2701] | 4.18 | 5.89 | 
O=[N+]([O-])c1ccc(C(CC(F)(F)F)OP(=O)(N2CC2)N2CC2)cc1 (centres unmarked) [compound 2690] | 4.00 | 5.49 | 
Cn1c([N+](=O)[O-])cnc1C(OP(=O)(N1CC1)N1CC1)C1CCCCC1 (centres unmarked) [compound 2633] | 4.08 | 6.52 | 
CC(OP(=O)(N1CC1)N1CC1)c1ccc([N+](=O)[O-])c(-n2cnc(-c3ccccc3)c2)c1 (centres unmarked) [compound 2749] | 5.52 | 7.00 | 
CNc1cc(C(C)OP(=O)(N2CC2)N2CC2)ccc1[N+](=O)[O-] (centres unmarked) [compound 2679] | 4.47 | 5.54 | 

SMILES | pIC50 [1] | pIC50 [2] | further results
CC(C)C(OP(=O)(N1CC1)N1CC1)c1ncc([N+](=O)[O-])n1CCN1CCCCC1 (centres unmarked) [compound 2603] | 4.54 | 6.52 | 
Cn1c([N+](=O)[O-])nc(-c2sc(Br)c(Br)c2Br)c1COP(=O)(N1CC1)N1CC1 [compound 2523] | 6.40 | 7.70 | 
CC(OP(=O)(N1CC1)N1CC1)c1ccc([N+](=O)[O-])c(-c2cccs2)c1 (centres unmarked) [compound 2783] | 4.29 | 5.77 | 
Cn1c(C(OP(=O)(N2CC2)N2CC2)C(F)(F)C(F)(F)F)cnc1[N+](=O)[O-] (centres unmarked) [compound 2128] | 4.74 | 7.70 | 
C=CCC(OP(=O)(N1CC1)N1CC1)c1ccc([N+](=O)[O-])cc1OC (centres unmarked) [compound 2569] | 5.70 | 7.30 | 
CC(OP(=O)(N1CC1)N1CC1)c1ccc([N+](=O)[O-])c(-c2ccc(-c3ccccc3)cc2)c1 (centres unmarked) [compound 2790] | 5.40 | 5.74 | 
O=[N+]([O-])c1ccc(C(CCO)OP(=O)(N2CC2)N2CC2)cc1 (centres unmarked) [compound 2714] | 4.03 | 6.30 | 
Cc1cc(COP(=O)(N2CC2)N2CC2)ccc1[N+](=O)[O-] [compound 2580] | 4.70 | 5.43 | 
Cn1c([N+](=O)[O-])cnc1C(OP(=O)(N1CC1)N1CC1)C1CCCC1 (centres unmarked) [compound 2561] | 4.54 | 6.70 | 
CC(OP(=O)(N1CC1)N1CC1)c1ccc([N+](=O)[O-])cc1 (centres unmarked) [compound 2537] |  |  | pIC50 [5]: 6.52; pIC50 [6]: 4.28
Cc1cn(-c2cc(C(C)OP(=O)(N3CC3)N3CC3)ccc2[N+](=O)[O-])cn1 (centres unmarked) [compound 2747] | 4.41 | 6.52 | 
C#Cc1cc(C(C)OP(=O)(N2CC2)N2CC2)ccc1[N+](=O)[O-] (centres unmarked) [compound 2792] | 5.43 | 6.70 | 
O=[N+]([O-])c1ccc2c(c1)CCC2OP(=O)(N1CC1)N1CC1 (centres unmarked) [compound 2652] | 5.66 | 7.70 | 
CC(OP(=O)(N1CC1)N1CC1)c1ccc([N+](=O)[O-])c(-c2ccco2)c1 (centres unmarked) [compound 2782] | 4.39 | 5.77 | 
CCC(CC)C(OP(=O)(N1CC1)N1CC1)c1ncc([N+](=O)[O-])n1C (centres unmarked) [compound 2609] | 3.43 | 6.40 | 
CC(OP(=O)(N1CC1)N1CC1)c1cc(N(C)CCN(C)C)c([N+](=O)[O-])cc1F (centres unmarked) [compound 2745] | 4.24 | 6.52 | 
CC(OP(=O)(N1CC1)N1CC1)c1ccc([N+](=O)[O-])c(-n2ccnc2Cl)c1 (centres unmarked) [compound 2765] | 5.09 | 7.52 | 
C=CCC(OP(=O)(N1CC1)N1CC1)c1ccc([N+](=O)[O-])cc1 (centres unmarked) [compound 2689] | 4.37 | 6.22 | 
